Measured values as given in US20230023026A1, “METHODS FOR TREATMENT OF DAMAGED BILIARY DUCT” (Mor Research Applications Ltd., priority 2020, published 2023).
Entries after “also recorded” stand apart in the source; their conditions may differ.

Legend:
[1] = system: EHBD explants from Mdr2−/− mice; assay: Ex-vivo bile duct explant culture of Mdr2−/− EHBDs treated with L-NAC (H&E, K19/ZO-1 immunostaining, DAPI); assay type: cell-based, mouse
Description: Intact extrahepatic bile ducts (EHBDs) from 2-week (N≥12) and 16-week (N≥5) old mice were dissected, placed in ice-cold V-7 cold preservation buffer (Vitron) followed by incubation in cholangiocyte medium (also termed herein “BEC medium”), according to a modification of the protocol described by Karjoo and Wells (Isolation of neonatal extrahepatic cholangiocytes. J. Vis. Exp. 2014). Ducts were placed on roller inserts, treated with N-Acetyl-L-cysteine (L-NAC) and other compounds as noted below, and cultured in a high oxygenation Vitron Dynamic Organ Culture Incubator at 37° C., in 95% O2 and 5% CO2, for 1-3 days. In the incubator (designed to optimally incubate tissue slices), the explants rotated and were exposed to alternating periods in medium and 95% oxygen/5% CO2. Thin slices of tissue remained viable without visible damage or evidence of necrosis or apoptosis for at least 3 days.
1. Histological H&E staining of cells of ducts tissue was performed according to standard staining protocol, using two dyes: the basic dye haemotoxylin and the acidic dye eosin. Eosin reacted with cationic or basic components (also termed “acidophilic”) and stained red or pink acidophilic structures (e.g., cytoplasmic proteins, intracellular membranes, and extracellular fibers). Haematoxylin, reacted with anionic or acidic components (also termed “basophilic”) in cells and, when used in combination with aluminum ions (Al^3+), stained purplish blue basophilic structures (e.g., the nucleic acids in the nucleus and parts of the cytoplasm that contain RNA (e.g., ribosomes and the rough endoplasmic reticulum)). EHBDs were fixed in 4% paraformaldehyde (PFA) and embedded in paraffin, then sections (4-μm thick) were cut and stained with H&E.
3. Immunostaining or immunohistochemistry (IHC), which combines anatomical, immunological and biochemical techniques, was conducted in order to image discrete components in EHBDs tissues by using appropriately labeled antibodies that bind specifically to their target antigens in situ Immunohistochemistry made it possible to visualize the high-resolution distribution and localization of specific cellular components within cholangiocytes and within their proper histological context Immunostaining methodology included two main steps: sample preparation and sample staining. In the preparation step, ducts were fixed at 4% PFA for the preservation of cell morphology and tissue architecture. Thin sections of tissues (4-μm thick) attached to individual glass slides where then immunostained as described e.g., in Dipaola et al., 2013 (Hepatology 58:1486-1496, 2013), using antibodies against the cholangiocyte marker keratin 19 (K19, 1:10, Developmental Studies Hybridoma Bank, TROMAIII) and ZO-1 tight junction protein (anti-ZO1 antibody ab96587; Abcam).
4. […]

[2] = system: Mdr2−/− mice; assay: In vivo treatment of Mdr2−/− mice with L-NAC in drinking water, liver histology (H&E, Sirius Red); parameters: species or system mouse; conditions: 4-month old Mdr2−/− mice, 30 gr/L L-NAC in drinking water for 3 weeks
Excerpt: The homozygote, multidrug resistance protein 2 knockout mouse (Mdr2KO or Mdr2^−/−, also known as Abcb4^−/−) lacks the protein MDR2, a canalicular phospholipid flippase that causes a complete absence of phosphatidylcholine in bile. Mdr2^−/− mice are a well-established model for biliary ducts diseases resulting from, or associated with, highly toxic bile. Multidrug resistance P-glycoproteins, Mdr2 in mouse and MDR3 in human, are choline-containing phospholipid phosphatidylcholine (PC) transporters. In the liver, Mdr2/MDR3 are involved in the translocation of PC from the inner leaflet to the outer leaflet of the canalicular membrane of hepatocytes for direct extraction by bile acids. Bile acids and PC are essential components in the bile that form bile acid containing micelles to thereby reduce the toxic detergent activity of bile acid for hepatocytes and cholangiocytes and to establish physiological bile flow. Mdr2 knockout mouse successively develops liver inflammation, hepatic fibrosis, and hepatocellular carcinoma (HCC) at late ages. The pathogenesis in Mdr2^−/− mice is commonly considered to be caused by increased levels of free toxic bile acids in the biliary canaliculus, which damages hepatocytes and cholangiocytes and provokes liver inflammation. This cholangiopathy is similar to human PSC. The wild type and Mdr2 knockout mice used in embodiments described herein are male and female mice of FVB genetic background (FVB/N and FVB/Mdr2^−/− mice, respectively). All mice were maintained under specific pathogen-free conditions with a 12-hour-light-dark cycle and permitted ad libitum consumption of water and a standard chow. FVB/Mdr2^−/− mice are reproducible model of spontaneously progressive chronic biliary liver disease associated with fibrosis, with histological lesions closely resembling human PSC. Though the Mdr2^−/− mouse is well-established for the investigation of PSC, little is known about EHBD injury in this model. 1. […] The liver repair effect in Mdr2^−/− mice treated with L-NAC was assessed. […]

CC(=O)N[C@@H](CS)C(=O)O [L-NAC, N-acetyl-L-cysteine]
histological damage, including coarse chromatin and nuclear crowding (H&E) ([1]; EHBDs from 2-week old Mdr2−/− mice, 5 μM L-NAC in fresh BEC medium, 24 hours): improved | expression of the tight junction protein ZO-1 (immunostaining) ([1]; EHBDs from 2-week old Mdr2−/− mice, 5 μM L-NAC, 24 hours): restored apical tight junction expression | restoration of the apical tight junction ZO-1 (immunostaining) ([1]; EHBDs from 16-week old Mdr2−/− mice, 5 μM L-NAC, 24 hours): not seen; also recorded: poor ZO-1 restoration | duct architecture / morphology (H&E) ([1]; Mdr2−/− EHBD explants, L-NAC and fresh BEC media for 24 hours): improved duct architecture with a more normal appearing columnar epithelium; also recorded: substantial morphological recovery | inflammatory cell infiltration around the portal areas (H&E) [2]: reduction in inflammatory cell infiltration | portal fibrosis in liver (H&E) [2]: reduced portal fibrosis | liver fibrosis (Sirius Red staining) ([2]; vs untreated mouse): reduction in liver fibrosis
